This passage reports IC50 results from US11053213B2, “Pharmaceutical compounds” (ALMAC DISCOVERY LIMITED, priority 2016, dated 2021).

This test addresses USP19 (Homo sapiens (Human), UniProt O94966). As to the kind of experiment: USP19 activity assay (fluorescence polarisation, Ubiquitin-Lys-TAMRA substrate). The format is biochemical. The note with it: full-length USP19 2.5 nM, 30 min pre-incubation, Ub substrate 500 nM; average of at least two duplicate experiments. In general terms: Fluorescence polarisation rises when a labelled molecule tumbles more slowly, as on binding a larger partner.

USP19, sequence (O94966 whole entry): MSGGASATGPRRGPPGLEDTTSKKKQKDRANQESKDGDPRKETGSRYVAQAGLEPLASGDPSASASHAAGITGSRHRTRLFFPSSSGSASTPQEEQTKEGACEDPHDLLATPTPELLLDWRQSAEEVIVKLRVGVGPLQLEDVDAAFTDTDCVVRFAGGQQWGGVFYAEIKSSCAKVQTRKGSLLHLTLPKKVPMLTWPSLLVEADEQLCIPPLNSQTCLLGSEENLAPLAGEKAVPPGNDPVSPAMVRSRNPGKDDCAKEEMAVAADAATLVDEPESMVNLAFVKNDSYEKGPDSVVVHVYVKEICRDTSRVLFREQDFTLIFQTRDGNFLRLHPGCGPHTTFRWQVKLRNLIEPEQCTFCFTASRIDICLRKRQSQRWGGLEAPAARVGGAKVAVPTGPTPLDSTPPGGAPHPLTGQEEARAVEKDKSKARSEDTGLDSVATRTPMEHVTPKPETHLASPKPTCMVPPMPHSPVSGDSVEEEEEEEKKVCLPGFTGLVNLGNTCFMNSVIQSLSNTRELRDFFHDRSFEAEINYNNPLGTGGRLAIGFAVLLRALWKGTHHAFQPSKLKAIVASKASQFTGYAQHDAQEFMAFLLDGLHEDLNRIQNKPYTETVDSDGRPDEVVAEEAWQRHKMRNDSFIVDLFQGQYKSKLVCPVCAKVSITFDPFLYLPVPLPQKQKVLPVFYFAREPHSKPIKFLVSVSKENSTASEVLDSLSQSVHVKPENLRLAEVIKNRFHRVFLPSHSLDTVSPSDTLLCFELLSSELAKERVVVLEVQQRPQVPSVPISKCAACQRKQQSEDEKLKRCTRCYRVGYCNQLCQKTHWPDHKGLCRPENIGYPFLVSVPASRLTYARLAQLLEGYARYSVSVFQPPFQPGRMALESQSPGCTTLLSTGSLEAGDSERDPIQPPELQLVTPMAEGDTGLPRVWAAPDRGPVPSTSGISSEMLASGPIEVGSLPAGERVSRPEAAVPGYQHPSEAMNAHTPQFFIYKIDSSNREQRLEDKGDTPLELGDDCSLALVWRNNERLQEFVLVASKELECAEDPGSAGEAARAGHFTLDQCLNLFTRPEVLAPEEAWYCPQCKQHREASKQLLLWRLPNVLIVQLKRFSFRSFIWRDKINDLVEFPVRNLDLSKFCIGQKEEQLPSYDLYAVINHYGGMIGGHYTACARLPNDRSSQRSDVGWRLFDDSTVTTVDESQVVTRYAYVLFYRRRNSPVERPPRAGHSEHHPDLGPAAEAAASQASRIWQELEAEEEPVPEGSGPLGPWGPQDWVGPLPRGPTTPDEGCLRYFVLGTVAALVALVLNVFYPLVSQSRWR

The IC50 is the point on the concentration scale where inhibition reaches its midpoint. Take `C[C@H](CC(=O)N1CCC(O)(Cn2cc(-c3ccccn3)c(-c3ccccc3)cc2=O)CC1)c1ccccc1` [Example 91, (R)-1′-((4-Hydroxy-1-(3-phenylbutanoyl)piperidin-4-yl)methyl)-4′-phenyl-[2,3′-bipyridin]-6′(1′H)-one]: the IC50 fell in the range of 0.5 to 5 µM. For the compound `CN(C)C(=O)c1cn(CC2(O)CCN(C(=O)C[C@H](c3ccccc3)C(F)F)CC23CCCC3)c(=O)cc1-c1ccccc1` (stereo partly drawn) [Example 181, 1-((7-((R)-4,4-Difluoro-3-phenylbutanoyl)-10-hydroxy-7-azaspiro[4.5]decan-10-yl)methyl)-N,N-dimethyl-6-oxo-4-phenyl-1,6-dihydropyridine-3-carboxamide], the IC50 is 0.5 to 5 µM. For the compound `C[C@H](CC(F)(F)F)C(=O)N1CC[C@@](O)(Cn2cc(C(=O)N3CCNCC3)c(-c3ccccc3F)cc2=O)C2(CCCC2)C1` [Example 225, 4-(2-Fluorophenyl)-1-(((S)-10-hydroxy-7-((R)-4,4,4-trifluoro-2-methylbutanoyl)-7-azaspiro[4.5]decan-10-yl)methyl)-5-(piperazine-1-carbonyl)pyridin-2(1H)-one], the IC50 lay in the range of 0.5 to 5 µM.

Consider `CCN(CC)C(=O)c1cn(CC2(O)CCN(C(=O)C[C@@H](C)c3ccccc3)CC2)c(=O)cc1-c1ccccc1` [Example 75, (R)—N,N-Diethyl-1-((4-hydroxy-1-(3-phenylbutanoyl)piperidin-4-yl)methyl)-6-oxo-4-phenyl-1,6-dihydropyridine-3-carboxamide], for which the IC50 lay in the range of 0.5 to 5 µM. For the compound `O=C(c1cn(C[C@]2(O)CCN(C(=O)C(CC(F)(F)F)CC(F)(F)F)CC23CCCC3)c(=O)cc1-c1ccccc1)N1CCNCC1` [Example 219, (S)-1-((10-Hydroxy-7-(4,4,4-trifluoro-2-(2,2,2-trifluoroethyl)butanoyl)-7-azaspiro[4.5]decan-10-yl)methyl)-4-phenyl-5-(piperazine-1-carbonyl)pyridin-2(1H)-one], the IC50 is 0.5 to 5 µM. In the case of `C=C(C)c1cc(=O)n(CC2(O)CCN(C(=O)C[C@@H](C)c3ccccc3)CC2)cn1` [Example 29, (R)-3-((4-Hydroxy-1-(3-phenylbutanoyl)piperidin-4-yl)methyl)-6-(prop-1-en-2-yl)pyrimidin-4(3H)-one], the IC50 was in the range of 50 to 250 µM. In the case of `C[C@H](CC(=O)N1CCC(O)(Cn2cnc(-c3ccccc3F)cc2=O)CC1)c1ccccc1` [Example 32, (R)-6-(2-Fluorophenyl)-3-((4-hydroxy-1-(3-phenylbutanoyl)piperidin-4-yl)methyl)pyrimidin-4(3H)-one], the IC50 lay in the range of 5 to 50 µM.

Consider `CC(n1cnc(-c2ccccc2)cc1=O)C1(O)CCN(C(=O)[C@H](C)CC2CCCCC2)CC1` (stereo partly drawn) [Example 108, 3-(1-(1-((R)-3-Cyclohexyl-2-methylpropanoyl)-4-hydroxypiperidin-4-yl)ethyl)-6-phenylpyrimidin-4(3H)-one], for which the IC50 lay within 0.5 to 5 µM. Take `C[C@H](CC1CCCCC1)C(=O)N1CCC(O)(Cn2cnc(-c3cn[nH]c3)cc2=O)C(C)(C)C1` (stereo partly drawn) [Example 132, 3-((1-((R)-3-Cyclohexyl-2-methylpropanoyl)-4-hydroxy-3,3-dimethylpiperidin-4-yl)methyl)-6-(1H-pyrazol-4-yl)pyrimidin-4(3H)-one]: the IC50 is 5 to 50 µM. In the case of `CC(C)N(C)C(=O)c1cn(CC2(O)CCN(C(=O)C3(C)CCCC3)CC2)c(=O)cc1-c1ccccc1F` [Example 23, 4-(2-Fluorophenyl)-1-((4-hydroxy-1-(1-methylcyclopentane-1-carbonyl)piperidin-4-yl)methyl)-N-isopropyl-N-methyl-6-oxo-1,6-dihydropyridine-3-carboxamide], the IC50 fell in the range of 5 to 50 µM.

As for `C[C@H](CC(=O)N1CCC(O)(Cn2cc(C(=O)N3CCCC3)c(-c3ccccc3)cc2=O)CC1)c1ccccc1` [Example 63, (R)-1-((4-Hydroxy-1-(3-phenylbutanoyl)piperidin-4-yl)methyl)-4-phenyl-5-(pyrrolidine-1-carbonyl)pyridin-2(1H)-one], the IC50 fell in the range of 0.5 to 5 µM. Regarding `C[C@H](CC(=O)N1CCC(O)(Cn2cc(N3CCCC3=O)c(-c3ccccc3)cc2=O)CC1)c1ccccc1` [Example 55, (R)-1-((4-Hydroxy-1-(3-phenylbutanoyl)piperidin-4-yl)methyl)-5-(2-oxopyrrolidin-1-yl)-4-phenylpyridin-2(1H)-one], the IC50 is 5 to 50 µM.

For the compound `O=C(CCC1CCC1)N1CCC(O)(Cn2cnc(-c3ccccc3F)cc2=O)CC1` [Example 3, 3-((1-(3-Cyclobutylpropanoyl)-4-hydroxypiperidin-4-yl)methyl)-6-(2-fluorophenyl)pyrimidin-4(3H)-one], the IC50 lay in the range of 50 to 250 µM. With `CN(C)C(=O)c1cn(CC2(O)CCN(C(=O)C3CCC(C(F)(F)F)C3)CC23CCCC3)c(=O)cc1-c1ccccc1` (stereo not shown) [Example 196, 1-((10-Hydroxy-7-(3-(trifluoromethyl)cyclopentane-1-carbonyl)-7-azaspiro[4.5]decan-10-yl)methyl)-N,N-dimethyl-6-oxo-4-phenyl-1,6-dihydropyridine-3-carboxamide] the figure was 0.5 to 5 µM; with `CN(C)C(=O)c1cn(CC2(O)CCN(C(=O)C34CCC(CC3)C4)CC23CCCC3)c(=O)cc1-c1ccccc1` (stereo not shown) [Example 179, 1-((7-(Bicyclo[2.2.1]heptane-1-carbonyl)-10-hydroxy-7-azaspiro[4.5]decan-10-yl)methyl)-N,N-dimethyl-6-oxo-4-phenyl-1,6-dihydropyridine-3-carboxamide], 50 to 250 µM.

Take `CC(Cc1ccccc1)C(=O)N1CCC(O)(Cn2cnc(-c3ccccc3F)cc2=O)CC1` (racemic) [Example 5, (R,S)-6-(2-Fluorophenyl)-3-((4-hydroxy-1-(2-methyl-3-phenylpropanoyl)piperidin-4-yl)methyl)pyrimidin-4(3H)-one]: the IC50 is 5 to 50 µM. For `CC(=O)Nc1ccccc1-c1cc(=O)n(CC2(O)CCN(C(=O)C[C@@H](C)c3ccccc3)CC2)cn1` [Example 85, (R)—N-(2-(1-((4-Hydroxy-1-(3-phenylbutanoyl)piperidin-4-yl)methyl)-6-oxo-1,6-dihydropyrimidin-4-yl)phenyl)acetamide], the IC50 fell in the range of 50 to 250 µM. In the case of `O=C(c1cn(C[C@]2(O)CCN(C(=O)[C@H](CO)CC(F)(F)F)CC23CCCC3)c(=O)cc1-c1ccccc1)N1CCNCC1` [Example 249, 1-(((S)-10-Hydroxy-7-((S)-4,4,4-trifluoro-2-(hydroxymethyl)butanoyl)-7-azaspiro[4.5]decan-10-yl)methyl)-4-phenyl-5-(piperazine-1-carbonyl)pyridin-2(1H)-one], the IC50 is less than 0.5 µM.

As for `C[C@H](CC1CCC1)C(=O)N1CC[C@@](O)(Cn2cc(C(=O)N3CCNCC3)c(C3CC3)cc2=O)C2(CCCC2)C1` [Example 231, 1-(((S)-7-((R)-3-Cyclobutyl-2-methylpropanoyl)-10-hydroxy-7-azaspiro[4.5]decan-10-yl)methyl)-4-cyclopropyl-5-(piperazine-1-carbonyl)pyridin-2(1H)-one], the IC50 lay within 0.5 to 5 µM.

`C[C@H](CC1CCCCC1)C(=O)N1CCC(O)(Cn2cnc(-c3cncnc3)cc2=O)C(C)(C)C1` (stereo partly drawn) [Example 130, 1-((1-((R)-3-Cyclohexyl-2-methylpropanoyl)-4-hydroxy-3,3-dimethylpiperidin-4-yl)methyl)-[4,5′-bipyrimidin]-6(1H)-one]: the IC50 fell in the range of 0.5 to 5 µM. With `C[C@H](CC(=O)N1CCC(O)(Cn2ncc(-c3ccccc3)cc2=O)CC1)c1ccccc1` [Example 37, (R)-2-((4-Hydroxy-1-(3-phenylbutanoyl)piperidin-4-yl)methyl)-5-phenylpyridazin-3(2H)-one] the figure was 50 to 250 µM; with `C[C@H](CC(=O)N1CCC(O)(Cn2cc(C(=O)N3CCN(C(=O)OC(C)(C)C)CC3)c(-c3ccccc3)cc2=O)CC1)c1ccccc1` [Example 93, (R)-tert-Butyl 4-(1-((4-hydroxy-1-(3-phenylbutanoyl)piperidin-4-yl)methyl)-6-oxo-4-phenyl-1,6-dihydropyridine-3-carbonyl)piperazine-1-carboxylate], 5 to 50 µM. Consider `C[C@H](CC1CCCCC1)C(=O)N1CC[C@@](O)(Cn2cc(C(=O)N3CCNCC3)c(-c3ccccc3F)cc2=O)C(C)(C)C1` [Example 206, 1-(((S)-1-((R)-3-Cyclohexyl-2-methylpropanoyl)-4-hydroxy-3,3-dimethylpiperidin-4-yl)methyl)-4-(2-fluorophenyl)-5-(piperazine-1-carbonyl)pyridin-2(1H)-one], for which the IC50 is less than 0.5 µM. With `C[C@@H]1CN(C(=O)c2cn(C[C@]3(O)CCN(C(=O)[C@H](C)CC4CCCCC4)CC3(C)C)c(=O)cc2-c2ccccc2)CCN1` [Example 213, 1-(((S)-1-((R)-3-Cyclohexyl-2-methylpropanoyl)-4-hydroxy-3,3-dimethylpiperidin-4-yl)methyl)-5-((R)-3-methylpiperazine-1-carbonyl)-4-phenylpyridin-2(1H)-one] the figure was less than 0.5 µM; with `CN(C)C(=O)c1cn(CC2(O)CCN(C(=O)C3(CC(F)F)CC3)CC23CCCC3)c(=O)cc1-c1ccccc1` (stereo not shown) [Example 178, 1-((7-(1-(2,2-Difluoroethyl)cyclopropane-1-carbonyl)-10-hydroxy-7-azaspiro[4.5]decan-10-yl)methyl)-N,N-dimethyl-6-oxo-4-phenyl-1,6-dihydropyridine-3-carboxamide], 50 to 250 µM. For `C[C@H](CC1CCCCC1)C(=O)N1CCC(O)(Cn2cnc(-c3cccc(CO)c3)cc2=O)C(C)(C)C1` (stereo partly drawn) [Example 138, 3-((1-((R)-3-Cyclohexyl-2-methylpropanoyl)-4-hydroxy-3,3-dimethylpiperidin-4-yl)methyl)-6-(3-(hydroxymethyl)phenyl)pyrimidin-4(3H)-one], the concentration for half-maximal inhibition (IC50) is less than 0.5 µM. For the compound `CC(C)(CC1CCC1)C(=O)N1CCC(O)(Cn2cnc(-c3ccccc3F)cc2=O)CC1` [Example 59, 3-((1-(3-Cyclobutyl-2,2-dimethylpropanoyl)-4-hydroxypiperidin-4-yl)methyl)-6-(2-fluorophenyl)pyrimidin-4(3H)-one], the IC50 lay in the range of 5 to 50 µM. With `C[C@H](CC(F)(F)F)C(=O)N1CC[C@@](O)(Cn2cc(C(=O)N(C)C)c(-c3ccccc3F)cc2=O)C2(CCCC2)C1` [Example 223, 4-(2-Fluorophenyl)-1-(((S)-10-hydroxy-7-((R)-4,4,4-trifluoro-2-methylbutanoyl)-7-azaspiro[4.5]decan-10-yl)methyl)-N,N-dimethyl-6-oxo-1,6-dihydropyridine-3-carboxamide], the IC50 lay within 0.5 to 5 µM.
